# Measurements as given in patent US20140243403A1, “TREATING COLORECTAL, PANCREATIC, AND LUNG CANCER” (The General Hospital Corporation, priority 2011, published 2014).
# pIC50: −log10 of the molar value.
# Assays:
# [1] = test system: HT29 vector control cells; test: Sensitivity of HT29 vector control cells; assay type: cell-based, human
# Protocol: (§1) (E) Introduction of a V5-tagged constitutively activated (CA) mutant of the BMP receptor, BMPR1A (Q233D) or control vector in HT29 cells and effects on 5Z-7-oxozeaenol sensitivity in terms of IC50 values.
# (§2) To determine whether TAK1-independent cells could be driven toward TAK1 dependency by enhanced KRAS/Wnt signaling, a series of reconstitution experiments was performed. HT29, SW620 or SKCO1 cells were infected with recombinant lentiviruses encoding either BMPR1A-CA and CTNNB1-CA or vector control (containing the ccDB gene). For BMPR1A-CA stable expression, cells were selected in 5 μg/mlBlasticidin for 7 days and pooled clones were established. Stable expression was verified using the V5 epitope tag on the BMPR1A transgene product. For CTNNB1-CA, the pWPI recombinant lentiviruses encode GFP driven by IRES. Thus, stable cell clones were obtaining by FACS live cell sorting to obtain the top 10% of GFP expressing cells. The SW620-CTNNB1-CA stable cell clones were passaged 1:5 every 2 days and assayed for KRAS dependency after the fifth passage.
# (§3) To further define the role of BMP signaling in TAK1 dependency, a constitutively-activated (CA) variant (Q233D) of BMPR1A (Zou et al., 1997) was ectopically expressed in HT29 cells. […] This was accompanied by dose-dependent decreases in Axin 2 and phosphorylated Smad2 levels. […]
# [2] = test system: KRAS-independent colon cancer cells; test: Apoptosis by PARP and caspase-3 cleavage; assay type: cell-based, human; conditions: except at very high doses
# Protocol: (B) Effects of TAK1 inhibition on apoptosis and signaling in a representative panel of KRAS-independent and KRAS-dependent cell lines, 24 h after treatment. PARP and caspase-3 cleavage are shown as indicators of apoptosis, and AMPK threonine 172 (T172) phosphorylation is shown as a downstream indicator of TAK1 signaling activity. GAPDH serves as a gel loading control.
# Pharmacologic TAK1 inhibition triggered apoptosis in KRAS-dependent colon cancer cells, as measured by PARP and caspase-3 cleavage (FIG. 3B). […] Thus, low concentrations of 5Z-7-oxozeaenol, in the range of 0.625 to 1.25 μM, promote apoptosis selectively in KRAS-dependent colon cancer cells.
# [3] = test system: non-small cell lung cancer (NSCLC) cells; test: Sensitivity of KRAS mutant NSCLC cell lines; assay type: cell-based; conditions: 4 NSCLC cell lines, APC wild-type
# Protocol: (§4) (B) 5Z-7-oxozeaenol IC50 values for KRAS mutant PDAC and NSCLC cell lines.
# (§5) To determine if sensitivity to TAK1 inhibition is specific to colon cancer-derived cell lines, sensitivity to 5Z-7-oxozeaenol was assessed in 5 KRAS mutant pancreatic ductal adenocarcinoma (PDAC) and 4 non-small cell lung cancer (NSCLC) cells, all of which are APC wild-type (FIG. 9B).
# [4] = test system: KRAS mutant pancreatic ductal adenocarcinoma (PDAC) cells; test: Sensitivity of KRAS mutant PDAC cell lines; assay type: cell-based; conditions: 5 KRAS mutant PDAC cell lines, APC wild-type
# Protocol: as §4, §5
# [5] = test system: HT29 cells expressing mutant NRAS; test: Sensitivity of HT29 cells expressing mutant NRAS; assay type: cell-based, human; conditions: HT29 cells with ectopic mutant NRAS
# Text: (D) Forced overexpression of epitope-tagged oncogenic G12V mutated RAS protein isoforms in HT29 cells and sensitivity to TAK1 pharmacological inhibition with 5Z-7-oxozeaenol. Expression levels of exogenous and endogenous Ras proteins are shown by immunoblotting with a pan-ras monoclonal antibody. NRAS/KRAS4B are HA-tagged and KRAS4A is V5-tagged.
# These cell lines are insensitive to 5Z-7-oxozeaenol.
# [6] = test system: HT29 cells expressing BMPR1A-CA (Q233D); test: Sensitivity of HT29 cells expressing BMPR1A-CA; assay type: cell-based, human
# Protocol: as §1, §2, §3
# [7] = test system: Wnt target gene Axin 2; test: Axin 2 protein expression, western blot; assay type: cell-based, human
# Protocol: (C) Protein expression levels of the Wnt target gene Axin 2 following treatment of cells with the indicated concentrations. GAPDH serves as a loading control.
# In contrast, KRAS depletion had no effect in one KRAS-independent line (SW1463) and increased TOP-FLASH activity in another (LS174T). […] To define the effect of TAK1 signaling on a physiological Wnt target gene, protein expression levels of the endogenous Axin 2 gene (Lustig et al., 2002) were measured following treatment with 5Z-7-oxozeaenol. […] Thus, both KRAS and TAK1 suppression selectively suppress β-catenin-mediated transcription and Wnt target gene expression in KRAS-dependent cells.
# The following antibodies were used for western blotting in the above examples: KRAS OP-24, Pan-Ras OP-40 (Calbiochem); PARP (BD Pharmigen, 4C10-5); BMP-7 (Abcam); phospho-ERK, Axin2, phospho Smad1 and total Smad1/5/8, phospho- and total AMPK, phospho- and total AKT, cleaved Caspase-3 (Cell Signaling); GAPDH (Chemicon); E-Cadherin, beta-catenin (BD Pharmigen) Syk, TAK1, total ERK1 (Santa Cruz). For secreted BMP-7 levels, 1×10^6 HT29 cells stably expressing ER-KRAS(12V) were plated in 10 cm dishes. 24 h post-plating, 10 ml serum-free DME/F12 medium (Gibco) was added. Conditioned media was collected 24 h post-induction of ER-KRAS(12V) with 4-HT and concentrated to […], using AMICON® Ultra-4 Centrifugal Filter Units with 3 kDa membranes. […]
compound,measurement,setting,value
COc1cc(O)c2c(c1)/C=C/C[C@H](O)[C@H](O)C(=O)/C=C\C[C@H](C)OC2=O [5Z-7-oxozeaenol],pIC50,[1],5.11
same,caspase-3 or PARP cleavage,[2],little or no
same,sensitivity to 5Z-7-oxozeaenol,[3],largely refractory
same,sensitivity to 5Z-7-oxozeaenol,[4],largely refractory
same,change in sensitivity to 5Z-7-oxozeaenol,[5],slightly increased resistance
same,pIC50,[6],5.96
same,Axin 2 expression,[7]; KRAS-dependent cells,dose-dependent reduction
same,"Axin 2 expression, dose-dependent reduction",[7]; KRAS-independent cells,not
